Where “and” joins values, the source holds several entries; their conditions need not be identical. Identical values can stand only once.
Experiments:
[1] = test system: liver HepG-2 cancer cell line; test: In vitro cytotoxic activity (MTT assay), HepG-2; conditions: for IC50: Homo sapiens, HepG2, read-out: IC50 (mean ± SD) HepG-2
Text: (§1) The supplemental file contained extra details.

[2] = test system: breast MCF-7 cancer cell line; test: In vitro cytotoxic activity (MTT assay), MCF-7; assay type: cell-based, human; conditions: for inhibition at 100 µM / IC50: Homo sapiens, MCF7; for inhibition at 100 µM: 48 h, read-out: % inhibition ± SD MCF-7; for IC50: MCF-7 cells, MTT, read-out: IC50 (mean ± SD) MCF-7
Text: as §1

[3] = test system: colorectal HCT-116 cancer cell line; test: In vitro cytotoxic activity (MTT assay), HCT-116; assay type: cell-based, human; conditions: for inhibition at 100 µM / IC50: Homo sapiens; for inhibition at 100 µM: HCT-116, 48 h, read-out: % inhibition ± SD HCT-116; for IC50: HCT-116 cells, MTT, read-out: IC50 (mean ± SD) HCT-116
Text: as §1

[4] = test system: retinal pigment epithelial normal RPE-1 cell line; test: Cytotoxic activity (MTT assay) against normal cell line RPE-1; assay type: cell-based; conditions: Homo sapiens, normal RPE-1 cells, read-out: IC50 (mean ± SD) RPE-1
Text: Furthermore, the MTT assay was utilized to estimate the cytotoxic activity of the extremely potent derivatives 4, 7 and 9 against the normal cell line RPE-1, with the aim of examining their safety profiles (Table 1). […] They could therefore be thought of as safe cytotoxic agents.
as §1

VEGFR-2 = VEGFR-2 (Homo sapiens, UniProt P35968); test: In vitro inhibitory assessment against VEGFR-2 (ELISA, MCF-7 cell homogenates); assay type: cell-based; conditions: read-out: IC50 (mean ± SD) VEGFR-2
Method: (§2) There was further information in the supplemental file.
The cells were harvested and the homogenates were prepared in saline using a tight pestle homogenizer until complete cell disruption. The kit uses a double-antibody sandwich enzyme-linked immunosorbent assay (ELISA) to determine the level of human VEGFR-2 in samples. A monoclonal antibody for VEGFR-2 was pre-coated onto 96-well plates. The test samples are added to the wells and a biotinylated detection polyclonal antibody from goat specific for VEGFR-2 was added subsequently followed by washing with PBS buffer. Avidin-Biotin-Peroxidase complex was added and the unbound conjugates were washed away with PBS buffer. HRP substrate TMB was used to visualize HRP enzymatic reaction. TMB was catalyzed by HRP to produce a blue color product that changed into yellow after adding acidic stop solution. The density of yellow color is proportional to the human VEGFR-2 amount of the sample captured in the plate. The chroma of color and the concentration of the human VEGFR-2 of the samples were positively correlated and the optical density was determined at 450 nm. The level of human VEGFR-2 in samples was calculated (pg/ml) as duplicate determinations from the standard curve. Percent inhibition was calculated in comparison to control untreated cells.

hCA IX = biological target: T1, hCA IX (Homo sapiens, UniProt Q16790); test: Carbonic anhydrase inhibition, stopped-flow CO2 hydration, hCA IX; assay type: biochemical; conditions: read-out: IC50 (mean ± SD) Carbonic anhydrase isoforms hCA IX
T1 construct: made in house
Method: as §2
(§3) An applied photophysics stopped-flow instrument was used for assaying the CA-catalyzed CO2 hydration activity. […] The CO2 concentrations ranged from 1.7 to 17 mM for the determination of the kinetic parameters and inhibition constants. For each inhibitor, at least six traces of the initial 5–10% of the reaction were used for determining the initial rate. The uncatalyzed rates were determined in the same manner and subtracted from the total observed rates. Stock solutions of inhibitor (0.1 mM) were prepared in distilled-deionized water, and dilutions up to 0.01 nM were done thereafter with distilled-deionized water. Inhibitor and enzyme solutions were preincubated together for 15 min at room temperature before assay in order to allow for the formation of the E-I complex. The inhibition constants were obtained by nonlinear least-squares methods using PRISM 3, and the Cheng –Prusoff equation, and represent the mean from at least three different determinations. All CA isoforms were recombinant ones obtained in-house.

hCA XII = biological target: T2, hCA XII (Homo sapiens, UniProt O43570); test: Carbonic anhydrase inhibition, stopped-flow CO2 hydration, hCA XII; assay type: biochemical; conditions: read-out: IC50 (mean ± SD) Carbonic anhydrase isoforms hCA XII
T2 construct: made in house
Method: as §2, §3

[5] = test system: lung A-549 cancer cell line; test: In vitro cytotoxic activity (MTT assay), A-549; conditions: for inhibition at 100 µM / IC50: Homo sapiens; for inhibition at 100 µM: A549, 48 h, read-out: % inhibition ± SD A-549; for IC50: A549, read-out: IC50 (mean ± SD) A-549
Method: Exponentially, cells were placed in 10^4 cells/ well for 24 h, and then add fresh medium which containing different concentration of the tested sample. Serial two-fold dilution of the tested sample were added using a multichannel pipette. […] Rinse the wells using water until no stain. After that, add 30% glacial acetic acid to all wells with shaking plates on Microplate reader (TECAN, Inc.) to measure the absorbance, using a test wavelength of 490 nm. Besides, compare the treated samples with the control cell.

MCF-7 cells [6] = test: Cell cycle analysis by flow cytometry (PI); assay type: cell-based, human; conditions: 21.15 μM, 24 h, 48 h (Table S6 title)
Method: (§4) The cells were further examined through flow cytometry with annexin-V staining (Figs. 5–7).
(§5) The examination of cell cycle analysis and apoptosis was explained[66] with the use of flow cytometry. Benzenesulfonamide-1,2,3-triazole-glycosides 9 was applied to MCF-7 cells for a duration of 24 h, and the cells were then incubated at 37 °C. Further details were included in the supplemental file.
(§6) Cell cycle analysis and apoptosis study were carried out using flow cytometry. MCF-7 cells were seeded at 8×10^4 and incubated at 37°C in 5% CO2 overnight. After treatment with the tested compound 10 for 24 h, cell pellets were collected and centrifuged (300 g, 5 min). For cell cycle analysis cell pellets were fixed with 70% ethanol on ice for 15 min and collected again. The pellets were incubated with propidium iodide (PI) staining solution at room temperature for 1 h and analyzed by a Gallios flow cytometer (Beckman Coulter, Brea, CA, USA). Apoptosis detection was carried out by FITC AnnexinV/PI commercial kit (Becton Dickenson, Franklin Lakes, NJ, USA) following the manufacturer protocol. The samples were analyzed by fluorescence-activated cell sorting (FACS) with a Gallios flow cytometer (Beckman Coulter, Brea, CA, USA) within 1 h after staining. Data were analyzed using Kaluza v 1.2 (Beckman Coulter).

MCF-7 cells [7] = test: Apoptosis detection, Annexin V-FITC/PI flow cytometry; assay type: cell-based, human; conditions: 21.15 μM, 24 h
Method: as §4, §5, §6

Bax = Bax level in MCF-7 cells; assay type: cell-based, human; conditions: 24 h, 21.15 μM
Text: (§7) Additionally, compound 9 boosted the p53 protein level by 7.4 times in MCF-7 treated cells compared to 125.40 Pg/mL in control cells (Table 3).
(§8) Bax, Bcl-2 and p53 levels in MCF-7 cells were clarified utilising the previously reported approach for the promising benzenesulfonamide-1,2,3-triazole-glycosides 9.
(§9) The levels of the apoptotic marker Bax and anti-apoptotic marker Bcl-2 were estimated using BIO RAD iScript TM One-Step RT-PCR kit with SYBR® Green. The procedure of the used kit was done according to the manufacturer’s instructions.

Bcl-2 = Bcl-2 level in MCF-7 cells; assay type: cell-based, human; conditions: 24 h, 21.15 μM
Text: as §7, §8, §9

p53 = p53 level in MCF-7 cells (ELISA); assay type: cell-based, human; conditions: 24 h, 21.15 μM
Method: as §7, §8
Human p53 present in MCF-7 cells was determined; using Human p53 ELISA-Kit (CS0070 Sigma) read using spectrophotometer at 450 nm against untreated control cells (negative control) applying the standard protocols of the manufacturers. The samples or standard having human p53 bind to antibodies adsorbed to the microwells. Addition of biotin-conjugated was followed by incubation and addition of dispense of unbound biotin-conjugated streptavidin HRP. Then, the reaction was terminated by adding acid, and the absorbance was measured at 450 nm.

T2 sequence (O43570 25-354): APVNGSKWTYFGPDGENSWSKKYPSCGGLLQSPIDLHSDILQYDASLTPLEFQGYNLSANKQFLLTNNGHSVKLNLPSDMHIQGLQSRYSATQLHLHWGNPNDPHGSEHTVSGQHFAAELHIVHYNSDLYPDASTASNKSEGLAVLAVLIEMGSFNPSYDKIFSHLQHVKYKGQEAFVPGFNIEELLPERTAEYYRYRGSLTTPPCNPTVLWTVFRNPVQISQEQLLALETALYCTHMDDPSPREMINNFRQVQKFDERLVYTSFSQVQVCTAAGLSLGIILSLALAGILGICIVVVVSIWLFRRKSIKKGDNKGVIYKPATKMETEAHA
Chain of VEGFR-2 (P35968 20-1356): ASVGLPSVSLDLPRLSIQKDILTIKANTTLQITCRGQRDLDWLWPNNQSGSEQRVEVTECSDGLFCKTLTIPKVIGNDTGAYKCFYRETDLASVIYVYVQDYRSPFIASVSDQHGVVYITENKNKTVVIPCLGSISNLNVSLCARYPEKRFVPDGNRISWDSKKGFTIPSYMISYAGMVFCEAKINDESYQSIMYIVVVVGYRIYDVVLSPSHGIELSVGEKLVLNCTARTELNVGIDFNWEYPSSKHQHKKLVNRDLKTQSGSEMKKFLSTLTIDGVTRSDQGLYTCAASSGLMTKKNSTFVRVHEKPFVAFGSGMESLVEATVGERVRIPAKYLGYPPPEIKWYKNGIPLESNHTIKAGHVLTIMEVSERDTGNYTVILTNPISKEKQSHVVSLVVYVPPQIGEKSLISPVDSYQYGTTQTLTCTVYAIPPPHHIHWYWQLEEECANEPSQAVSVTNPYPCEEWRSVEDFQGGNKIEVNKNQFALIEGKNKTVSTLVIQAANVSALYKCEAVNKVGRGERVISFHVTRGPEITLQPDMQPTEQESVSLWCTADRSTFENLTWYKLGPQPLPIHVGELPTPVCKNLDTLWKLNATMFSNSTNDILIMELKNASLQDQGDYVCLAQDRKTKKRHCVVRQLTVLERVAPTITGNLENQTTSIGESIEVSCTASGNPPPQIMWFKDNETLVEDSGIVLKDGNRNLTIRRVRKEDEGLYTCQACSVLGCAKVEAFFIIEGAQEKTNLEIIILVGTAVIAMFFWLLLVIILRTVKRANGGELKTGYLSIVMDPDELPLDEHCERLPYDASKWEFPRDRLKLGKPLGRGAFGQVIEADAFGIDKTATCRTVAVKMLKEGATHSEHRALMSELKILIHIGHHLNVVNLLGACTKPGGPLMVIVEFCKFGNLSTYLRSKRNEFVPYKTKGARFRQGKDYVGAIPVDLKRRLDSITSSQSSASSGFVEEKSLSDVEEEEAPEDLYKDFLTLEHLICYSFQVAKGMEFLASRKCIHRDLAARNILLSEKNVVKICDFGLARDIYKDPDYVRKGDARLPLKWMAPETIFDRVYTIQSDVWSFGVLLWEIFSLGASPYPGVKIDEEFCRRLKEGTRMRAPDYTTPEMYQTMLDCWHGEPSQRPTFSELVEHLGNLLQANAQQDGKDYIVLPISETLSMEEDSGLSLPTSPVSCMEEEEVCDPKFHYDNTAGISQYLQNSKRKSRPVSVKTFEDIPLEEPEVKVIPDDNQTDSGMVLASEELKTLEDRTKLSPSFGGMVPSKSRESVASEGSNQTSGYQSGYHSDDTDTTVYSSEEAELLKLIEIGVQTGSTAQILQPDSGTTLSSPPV

## CC(=O)OC[C@H]1O[C@@H](OCc2cn(-c3ccc(S(=O)(=O)NC4CCCCC4)cc3)nn2)[C@H](OC(C)=O)[C@@H](OC(C)=O)[C@H]1OC(C)=O [Compound 7, N-cyclohexyl-4-(4-([2,3,4,6-tetra-O-acetyl-β-D-galactopyranosyl]oxymethyl)-1H-1,2,3-triazol-1-yl)benzenesulfonamide]
[1]; 12.5 µM
  percentage cytotoxicity on HepG-2: 84.09±0.85%
[1]; 25 µM
  percentage cytotoxicity on HepG-2: 85.07±0.05%
[1]; 50 µM
  percentage cytotoxicity on HepG-2: 85.58±0.88%
[1]; 100 µM
  percentage cytotoxicity on HepG-2: 87.60±1.73%
[1]
  IC50: 10.5 ± 0.13 µM
[2]; 12.5 µM
  percentage cytotoxicity on MCF-7: 30.37±3.66%
[2]; 25 µM
  percentage cytotoxicity on MCF-7: 55.90±1.44%
[2]; 50 µM
  percentage cytotoxicity on MCF-7: 88.77±2.70%
[2]; 100 µM
  percentage cytotoxicity on MCF-7: 98.89±0.19%
  inhibition at 100 µM: 98.89 ± 0.19%
[2]
  IC50: 20.3 ± 0.66 µM
[3]; 12.5 µM
  percentage cytotoxicity on HCT-116: 32.50±1.25%
[3]; 25 µM
  percentage cytotoxicity on HCT-116: 48.80±0.95%
[3]; 50 µM
  percentage cytotoxicity on HCT-116: 50.70±0.70%
[3]; 100 µM
  percentage cytotoxicity on HCT-116: 75.70±0.96%
  inhibition at 100 µM: 75.7 ± 0.96%
[3]
  IC50: 32 ± 0.42 µM
[4]
  IC50: 82.58 ± 0.52 µM
VEGFR-2
  IC50: 1.33 ± 0.1 µM
hCA IX
  IC50: 0.066 µM
hCA XII
  IC50: 0.0076 µM
[5]; 12.5 µM
  percentage cytotoxicity on A-549: 12.60±0.82%
[5]; 25 µM
  percentage cytotoxicity on A-549: 29.31±0.02%
[5]; 50 µM
  percentage cytotoxicity on A-549: 60.23±1.47%
[5]; 100 µM
  percentage cytotoxicity on A-549: 94.10±0.51%
[5]
  inhibition at 100 µM: 94.1 ± 0.51%
  IC50: 20.4 ± 0.28 µM

## [N-]=[N+]=Nc1ccc(S(=O)(=O)NC2CCCCC2)cc1 [Compound 4, 4-Azido-N-cyclohexylbenzenesulfonamide]
[1]; 12.5 µM
  percentage cytotoxicity on HepG-2: 85.13±1.65%
[1]; 25 µM
  percentage cytotoxicity on HepG-2: 86.23±0.98%
[1]; 50 µM
  percentage cytotoxicity on HepG-2: 85.67±2.50%
[1]; 100 µM
  percentage cytotoxicity on HepG-2: 87.30±0.91%
[1]
  IC50: 12.5 ± 0.51 µM
[2]; 12.5 µM
  percentage cytotoxicity on MCF-7: 35.03±2.83%
[2]; 25 µM
  percentage cytotoxicity on MCF-7: 58.31±3.30%
[2]; 50 µM
  percentage cytotoxicity on MCF-7: 78.50±0.37%
[2]; 100 µM
  percentage cytotoxicity on MCF-7: 91.20±0.09%
  inhibition at 100 µM: 91.2 ± 0.09%
[2]
  IC50: 19.6 ± 1.1 µM
[3]; 12.5 µM
  percentage cytotoxicity on HCT-116: 34.64±0.48%
[3]; 25 µM
  percentage cytotoxicity on HCT-116: 51.93±0.58%
[3]; 50 µM
  percentage cytotoxicity on HCT-116: 86.90±0.28%
[3]; 100 µM
  percentage cytotoxicity on HCT-116: 94.83±0.87%
  inhibition at 100 µM: 94.83 ± 0.87%
[3]
  IC50: 20.3 ± 0.33 µM
[4]
  IC50: 78.3 ± 1.56 µM
VEGFR-2
  IC50: 181 ± 0.66 µM
hCA IX
  IC50: 0.142 µM
hCA XII
  IC50: 0.0359 µM
other
  melting point: 65 to 67 °C
[5]; 12.5 µM
  percentage cytotoxicity on A-549: 21.37±1.55%
[5]; 25 µM
  percentage cytotoxicity on A-549: 34.87±0.75%
[5]; 50 µM
  percentage cytotoxicity on A-549: 70.87±1.63%
[5]; 100 µM
  percentage cytotoxicity on A-549: 97.43±0.67%
[5]
  inhibition at 100 µM: 97.43 ± 0.67%
  IC50: 30.9 ± 0.65 µM

## CC(=O)O[C@@H]1[C@@H](OC(C)=O)[C@H](OCc2cn(-c3ccc(S(=O)(=O)NC4CCCCC4)cc3)nn2)OC[C@H]1OC(C)=O [Compound 9, N-cyclohexyl-4-(4-([2,3,4-tri-O-acetyl-β-D-xylopyranosyl]oxymethyl)-1H-1,2,3-triazol-1-yl)benzenesulfonamide]
[1]; 12.5 µM
  percentage cytotoxicity on HepG-2: 58.20±1.50%
[1]; 25 µM
  percentage cytotoxicity on HepG-2: 63.70±2.29%
[1]; 50 µM
  percentage cytotoxicity on HepG-2: 82.59±0.87%
[1]; 100 µM
  percentage cytotoxicity on HepG-2: 82.60±1.73%
[1]
  IC50: 8.39 ± 0.2 µM
[2]; 12.5 µM
  percentage cytotoxicity on MCF-7: 32.60±6.13%
[2]; 25 µM
  percentage cytotoxicity on MCF-7: 52.27±0.43%
[2]; 50 µM
  percentage cytotoxicity on MCF-7: 83.30±1.87%
[2]; 100 µM
  percentage cytotoxicity on MCF-7: 92.73±1.04%
  inhibition at 100 µM: 92.7 ± 1.04%
[2]
  IC50: 21.2 ± 2.45 µM
[3]; 12.5 µM
  percentage cytotoxicity on HCT-116: 34.51±0.44%
[3]; 25 µM
  percentage cytotoxicity on HCT-116: 53.50±0.93%
[3]; 50 µM
  percentage cytotoxicity on HCT-116: 67.00±0.12%
[3]; 100 µM
  percentage cytotoxicity on HCT-116: 75.70±0.48%
  inhibition at 100 µM: 75.7 ± 0.48%
[3]
  IC50: 23.6 ± 0.22 µM
[4]
  IC50: 87.22 ± 0.73 µM
VEGFR-2
  IC50: 0.38 ± 0.14 µM
hCA IX
  IC50: 0.04 µM
hCA XII
  IC50: 0.0032 µM
MCF-7 cells [6]
  %G0-G1: 52.69%
  %G2/M: 29.98%
  %S: 17.33%
MCF-7 cells [7]
  Apoptosis Early: 15.77%
  Apoptosis Late: 9.75%
  Apoptosis Total: 29.51
  Necrosis: 3.99%
Bax
  Bax: 271.45 pg/mL and 271.45 ± 0.25 pg/mL
  Bax/Bcl-2: 83.01
  increase in Bax levels compared to untreated control cells: 6.2 fold
Bcl-2
  Bcl-2: 3.27 ng/mL and 3.27 ± 0.18 ng/mL
  Bcl-2 protein downregulated versus control: 2.6 times
p53
  P53: 930.69 ± 0.55 pg/mL
  p53 protein level boosted versus control: 7.4 times
[5]; 12.5 µM
  percentage cytotoxicity on A-549: 43.13±0.73%
[5]; 25 µM
  percentage cytotoxicity on A-549: 47.60±0.32%
[5]; 50 µM
  percentage cytotoxicity on A-549: 75.53±1.16%
[5]; 100 µM
  percentage cytotoxicity on A-549: 90.00±0.95%
[5]
  inhibition at 100 µM: 90 ± 0.95%
  IC50: 19.8 ± 0.65 µM
